From ChEMBL document CHEMBL1201862, “PubChem BioAssay data set” (2004)
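Interpolation was linear, between the two tested concentrations surrounding the appropriate level; five concentrations were tested over 48 hours in 96-well plates. GI50 marks 50% less growth.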 Activity calls are given as the source filed them. Cut-off read from the data, not from the text of the source: active = GI50 up to about 1.1 µM and inactive = higher.

Columns and labels:
Test in all cases: DTP human tumour cell line panel, 48 h
786-0 = tested on: 786-0
A498 = tested on: A498
A549 = tested on: A549
BT-549 = tested on: BT-549
CCRF-CEM = tested on: CCRF-CEM
COLO 205 = tested on: COLO 205
DMS-114 = tested on: DMS-114
DMS-273 = tested on: DMS-273
EKVX = tested on: EKVX
HCT-116 = tested on: HCT-116
HCT-15 = tested on: HCT-15
HL-60 = tested on: HL-60
HOP-18 = tested on: HOP-18
HT-29 = tested on: HT-29
Hs-578T = tested on: Hs-578T
KM-20L2 = tested on: KM-20L2
LOX IMVI = tested on: LOX IMVI
LXFL 529 = tested on: LXFL 529
M14 = tested on: M14
MCF7 = tested on: MCF7
MOLT-4 = tested on: MOLT-4
Malme-3M = tested on: Malme-3M
NCI-H460 = tested on: NCI-H460
NCI-H522 = tested on: NCI-H522
NCI/ADR-RES = tested on: NCI/ADR-RES
OVCAR-3 = tested on: OVCAR-3
OVCAR-4 = tested on: OVCAR-4
OVCAR-5 = tested on: OVCAR-5
PC-3 = tested on: PC-3
RPMI-8226 = tested on: RPMI-8226
SK-MEL-2 = tested on: SK-MEL-2
SNB-78 = tested on: SNB-78
SW-620 = tested on: SW-620
UO-31 = tested on: UO-31
ACHN = tested on: ACHN
HCC 2998 = tested on: HCC 2998
HOP-92 = tested on: HOP-92
IGROV-1 = tested on: IGROV-1
K562 = tested on: K562
KM12 = tested on: KM12
M19-MEL = tested on: M19-MEL
NCI-H226 = tested on: NCI-H226
NCI-H23 = tested on: NCI-H23
OVCAR-8 = tested on: OVCAR-8
RXF 393 = tested on: RXF 393
SF-268 = tested on: SF-268
SF-295 = tested on: SF-295
SF-539 = tested on: SF-539
SK-MEL-28 = tested on: SK-MEL-28
SK-MEL-5 = tested on: SK-MEL-5
SK-OV-3 = tested on: SK-OV-3
SN12C = tested on: SN12C
SNB-19 = tested on: SNB-19
SNB-75 = tested on: SNB-75
SR = tested on: SR
TK-10 = tested on: TK-10
U-251 = tested on: U-251
UACC-257 = tested on: UACC-257
UACC-62 = tested on: UACC-62

With `COc1cc(CNc2ccc(SC)cc2)cc(OC)c1OC` the GI50 (786-0) was 8.2 µM (inactive), the GI50 (A498) was 13.6 µM (inactive) and the GI50 (A549) was 8.41 µM (inactive). For the same compound, the GI50 (BT-549) was 1.63 µM (inactive), the GI50 (CCRF-CEM) was 6.65 µM (inactive) and the GI50 (COLO 205) was 3.47 µM (inactive). The GI50 (DMS-114) was 3.37 µM (inactive), the GI50 (DMS-273) was 4.48 µM (inactive) and the GI50 (EKVX) was 27.1 µM (inactive). The GI50 (HCT-116) was 4.71 µM (inactive), the GI50 (HCT-15) was 4.23 µM and the GI50 (HL-60) was 2.55 µM (inactive). For the same compound, the GI50 (HOP-18) was 22.6 µM (inactive), the GI50 (HT-29) was 3.35 µM (inactive) and the GI50 (Hs-578T) was 11 µM (inactive). For the same compound, the GI50 (KM-20L2) was 4.31 µM (inactive), the GI50 (LOX IMVI) was 5.75 µM (inactive) and the GI50 (LXFL 529) was 12.6 µM (inactive). The GI50 (M14) was 3.27 µM (inactive), the GI50 (MCF7) was 3.36 µM (inactive) and the GI50 (MOLT-4) was 5.6 µM (inactive). For the same compound, the GI50 (Malme-3M) was 7.29 µM (inactive), the GI50 (NCI-H460) was 4.38 µM (inactive) and the GI50 (NCI-H522) was 2.88 µM (inactive). For the same compound, the GI50 (NCI/ADR-RES) was 3.15 µM (inactive), the GI50 (OVCAR-3) was 3.68 µM (inactive) and the GI50 (OVCAR-4) was 27 µM (inactive). For the same compound, the GI50 (OVCAR-5) was 17.2 µM (inactive), the GI50 (PC-3) was 6.95 µM (inactive) and the GI50 (RPMI-8226) was 8.57 µM (inactive). For the same compound, the GI50 (SK-MEL-2) was 6.27 µM (inactive), the GI50 (SNB-78) was 53.8 µM (inactive) and the GI50 (SW-620) was 3.46 µM (inactive). The GI50 (UO-31) was 10.9 µM (inactive).
For `NCCCOCC(=O)O`, the GI50 (786-0) was > 100 µM (inactive), the GI50 (A549) was > 100 µM (inactive) and the GI50 (ACHN) was > 100 µM (inactive). The GI50 (COLO 205) was > 100 µM (inactive), the GI50 (DMS-114) was > 100 µM (inactive) and the GI50 (DMS-273) was > 100 µM (inactive). For the same compound, the GI50 (EKVX) was > 100 µM (inactive), the GI50 (HCC 2998) was > 100 µM (inactive) and the GI50 (HCT-116) was > 100 µM (inactive). For the same compound, the GI50 (HCT-15) was greater than 100 µM, the GI50 (HOP-92) was > 100 µM (inactive) and the GI50 (HT-29) was > 100 µM (inactive). For the same compound, the GI50 (IGROV-1) was > 100 µM (inactive), the GI50 (K562) was > 100 µM (inactive) and the GI50 (KM-20L2) was > 100 µM (inactive). The GI50 (KM12) was > 100 µM (inactive), the GI50 (LXFL 529) was > 100 µM (inactive) and the GI50 (M19-MEL) was > 100 µM (inactive). The GI50 (MOLT-4) was > 100 µM (inactive), the GI50 (Malme-3M) was > 100 µM (inactive) and the GI50 (NCI-H226) was > 100 µM (inactive). For the same compound, the GI50 (NCI-H23) was > 100 µM (inactive), the GI50 (OVCAR-3) was > 100 µM (inactive) and the GI50 (OVCAR-4) was > 100 µM (inactive). The GI50 (OVCAR-5) was > 100 µM (inactive), the GI50 (OVCAR-8) was > 100 µM (inactive) and the GI50 (RPMI-8226) was > 100 µM (inactive). The GI50 (RXF 393) was > 100 µM (inactive), the GI50 (SF-268) was > 100 µM (inactive) and the GI50 (SF-295) was > 100 µM (inactive). For the same compound, the GI50 (SF-539) was > 100 µM (inactive), the GI50 (SK-MEL-28) was > 100 µM (inactive) and the GI50 (SK-MEL-2) was > 100 µM (inactive). The GI50 (SK-MEL-5) was > 100 µM (inactive), the GI50 (SK-OV-3) was > 100 µM (inactive) and the GI50 (SN12C) was > 100 µM (inactive). For the same compound, the GI50 (SNB-19) was > 100 µM (inactive), the GI50 (SNB-75) was > 100 µM (inactive) and the GI50 (SNB-78) was > 100 µM (inactive). For the same compound, the GI50 (SR) was > 100 µM (inactive), the GI50 (SW-620) was > 100 µM (inactive) and the GI50 (TK-10) was > 100 µM (inactive). The GI50 (U-251) was > 100 µM (inactive), the GI50 (UACC-257) was > 100 µM (inactive) and the GI50 (UACC-62) was > 100 µM (inactive). For the same compound, the GI50 (UO-31) was > 100 µM (inactive).
